The values that follow come from patent US20170152239A1, “BENZAMIDE AND HETEROBENZAMIDE COMPOUNDS” (PFIZER INC., priority 2012, published 2017).

Like-named read-outs stand apart in the source and are kept apart here.

One test addresses EZH2PRC2 mutant Y641N (Homo sapiens, UniProt Q15910, Y641N). Nature of the test: EZH2PRC2 mutant Y641N nucleosome assay. The test is classed as biochemical. The following applies: read-out: EZH2PCR2 Mutant Y641N IC50. On the procedure: Nucleosome Assay Protocol:
A. Compound preparation • 1. Prepare 10 mM stock solutions in 100% DMSO from solid material • 2. Serial dilute 10 mM compound stocks either 2 or 3-fold in 100% DMSO to generate compounds for 11 point dose response
B. Reagent preparation • 1. Prepare 1× assay buffer containing 100 mM Tris pH 8.5, 4 mM DTT and 0.01% Tween-20 • 2. Dilute purified HeLA oligonucleosomes and recombinant histone H1 (New England Biolabs) in assay buffer to 1.67×. • 3. Dilute EZH2 4 protein complex (EZH2, EED, SUZ12, RbAp48) to 3.5× in assay buffer • 4. Prepare 10×^3H SAM solution in assay buffer using 0.94 μCi/well of radioactive SAM (Perkin Elmer) and sufficient non-labeled SAM (Sigma) for 1.5 μM final concentration. • 5. Dilute TCA to 20% in DI water
C. Enzyme reaction • 1. Final reaction conditions are 5 nM EZH2 4-protein complex, 1.5 μM SAM, 25 μg/mL oligonucleosomes, 50 nM rH1 in a 50 μl reaction volume. • 2. Add 1 μl of diluted compound to the assay plate (96-well V-bottom polypropylene plates) or 1 μl of DMSO for control wells. • 3. Add 30 μl of nucleosomes to the assay plate • 4. Add 14 μl of EZH2 4 protein complex to the assay plate • 5. Add 5 μl of ^3H SAM to start the reaction. • 6. Stop the reaction after 60 minutes with the addition of 100 μl of 20% TCA • 7. Transfer 150 μl of quenched reaction into a prepared filterplate (Millipore #MSIPN4B10) • 8. Apply vacuum to the filterplate to filter the reaction mix through the membrane. • 9. Wash the filterplate with 8×200 μl of PBS, blot dry and dry in an oven for 30 minutes • 10. Add 50 μl of microscint-20 scintillation fluid (Perkin Elmer) to each well, wait 30 minutes and count on a liquid scintillation counter.
D. Data analysis • 1. IC50 values were determined by fitting the data to a 4-parameter IC50 equation using proprietary curve fitting software.
Wild type (WT) EZH2% Effect at 20 μM and IC50 values (μM) generated in WT EZH2 or EZH2PRC2 mutant Y641N nucleosome assays are provided in Table 3 below. A blank entry in the table indicates the data was not generated in that assay.

Test [1] has as its target WT EZH2 (EZH2 4 protein complex: EZH2, EED, SUZ12, RbAp48) (Homo sapiens, UniProt O75530+Q09028+Q15022+Q15910). Nature of the test: WT EZH2 nucleosome assay. It is filed as biochemical. An outline of the steps: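 IC50 values come from 4-parameter fits of 11-point dose responses, with % effect also given at 20 μM. Reactions held HeLa oligonucleosomes (25 μg/mL), rH1 (50 nM), 1.5 μM tritiated SAM and 5 nM enzyme complex at pH 8.5 Tris/DTT/Tween; stopped by TCA after 60 min, filtered and scintillation-counted.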

[2] abbreviates: nucleosome assay, 5 nM EZH2 4-protein complex, 1.5 μM SAM, read-out: WT EZH2 IC50.

EZH2PRC2 mutant Y641N, sequence (Q15910 whole entry Y641N): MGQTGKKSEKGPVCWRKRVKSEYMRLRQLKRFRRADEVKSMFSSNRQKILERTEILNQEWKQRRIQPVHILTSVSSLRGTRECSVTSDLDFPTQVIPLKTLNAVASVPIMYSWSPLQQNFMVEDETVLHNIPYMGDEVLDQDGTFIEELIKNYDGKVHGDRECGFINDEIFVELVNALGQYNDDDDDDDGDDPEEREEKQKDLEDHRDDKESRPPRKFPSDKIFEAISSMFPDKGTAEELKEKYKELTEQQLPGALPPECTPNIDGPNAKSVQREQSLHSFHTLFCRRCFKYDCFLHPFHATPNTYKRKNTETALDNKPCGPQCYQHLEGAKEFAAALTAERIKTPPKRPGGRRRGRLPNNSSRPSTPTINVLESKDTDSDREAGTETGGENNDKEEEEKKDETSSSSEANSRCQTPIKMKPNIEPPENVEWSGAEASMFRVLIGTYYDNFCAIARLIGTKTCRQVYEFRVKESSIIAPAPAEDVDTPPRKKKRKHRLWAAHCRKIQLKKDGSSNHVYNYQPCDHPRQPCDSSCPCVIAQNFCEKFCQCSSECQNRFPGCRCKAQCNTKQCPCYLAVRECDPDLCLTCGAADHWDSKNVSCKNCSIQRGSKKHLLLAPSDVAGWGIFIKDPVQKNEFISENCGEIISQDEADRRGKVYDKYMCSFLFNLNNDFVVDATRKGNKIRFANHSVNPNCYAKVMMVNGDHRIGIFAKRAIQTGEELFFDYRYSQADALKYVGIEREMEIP
EZH2PRC2 mutant Y641N, sequence (O75530 whole entry partner): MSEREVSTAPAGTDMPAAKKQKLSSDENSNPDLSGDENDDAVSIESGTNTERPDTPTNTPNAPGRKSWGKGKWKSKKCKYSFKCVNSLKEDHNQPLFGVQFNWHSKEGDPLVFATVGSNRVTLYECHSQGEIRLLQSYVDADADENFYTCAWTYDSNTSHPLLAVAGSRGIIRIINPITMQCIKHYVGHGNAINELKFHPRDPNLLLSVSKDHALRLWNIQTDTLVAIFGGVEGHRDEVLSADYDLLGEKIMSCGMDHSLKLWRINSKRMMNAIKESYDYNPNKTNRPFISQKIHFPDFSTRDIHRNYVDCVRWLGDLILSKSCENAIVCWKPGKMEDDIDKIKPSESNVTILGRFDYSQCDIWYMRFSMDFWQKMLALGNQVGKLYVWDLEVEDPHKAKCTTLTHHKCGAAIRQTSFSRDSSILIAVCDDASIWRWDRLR
EZH2PRC2 mutant Y641N, sequence (Q15022 whole entry partner): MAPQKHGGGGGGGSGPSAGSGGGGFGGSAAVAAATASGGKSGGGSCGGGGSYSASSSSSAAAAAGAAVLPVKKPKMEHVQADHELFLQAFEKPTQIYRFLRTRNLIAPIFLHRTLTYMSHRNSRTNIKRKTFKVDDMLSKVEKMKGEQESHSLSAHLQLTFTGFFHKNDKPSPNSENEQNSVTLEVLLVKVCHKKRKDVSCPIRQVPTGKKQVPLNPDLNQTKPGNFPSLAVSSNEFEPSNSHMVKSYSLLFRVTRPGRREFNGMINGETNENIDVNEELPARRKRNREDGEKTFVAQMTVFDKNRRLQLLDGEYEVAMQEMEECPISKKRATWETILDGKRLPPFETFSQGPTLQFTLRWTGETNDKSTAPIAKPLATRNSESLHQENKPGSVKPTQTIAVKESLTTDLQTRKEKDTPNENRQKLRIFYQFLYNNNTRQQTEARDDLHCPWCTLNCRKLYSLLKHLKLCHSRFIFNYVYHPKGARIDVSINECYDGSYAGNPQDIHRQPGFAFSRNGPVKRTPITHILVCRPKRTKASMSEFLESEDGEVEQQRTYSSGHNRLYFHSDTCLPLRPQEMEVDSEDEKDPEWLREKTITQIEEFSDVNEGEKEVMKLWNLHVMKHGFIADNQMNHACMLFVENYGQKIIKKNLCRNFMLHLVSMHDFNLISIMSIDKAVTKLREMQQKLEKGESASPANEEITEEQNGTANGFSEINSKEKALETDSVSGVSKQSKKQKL
EZH2PRC2 mutant Y641N, sequence (Q09028 whole entry partner): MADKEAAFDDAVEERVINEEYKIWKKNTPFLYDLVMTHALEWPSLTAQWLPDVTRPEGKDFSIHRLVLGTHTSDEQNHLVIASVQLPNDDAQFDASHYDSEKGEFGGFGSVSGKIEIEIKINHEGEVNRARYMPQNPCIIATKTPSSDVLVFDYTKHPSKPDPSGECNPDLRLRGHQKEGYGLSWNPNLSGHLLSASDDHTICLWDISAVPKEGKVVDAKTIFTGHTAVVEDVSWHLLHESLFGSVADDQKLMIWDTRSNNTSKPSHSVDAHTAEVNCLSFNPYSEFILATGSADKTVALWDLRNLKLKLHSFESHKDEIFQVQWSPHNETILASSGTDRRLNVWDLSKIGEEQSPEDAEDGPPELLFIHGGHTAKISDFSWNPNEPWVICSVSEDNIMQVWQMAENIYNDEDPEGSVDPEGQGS
WT EZH2 (EZH2 4 protein complex: EZH2, EED, SUZ12, RbAp48), sequence (Q15910 whole entry): as the sequence (Q15910 whole entry Y641N) above, with N641Y counted along it
WT EZH2 (EZH2 4 protein complex: EZH2, EED, SUZ12, RbAp48), sequence (O75530 whole entry partner): as the sequence (O75530 whole entry partner) above
WT EZH2 (EZH2 4 protein complex: EZH2, EED, SUZ12, RbAp48), sequence (Q15022 whole entry partner): as the sequence (Q15022 whole entry partner) above
WT EZH2 (EZH2 4 protein complex: EZH2, EED, SUZ12, RbAp48), sequence (Q09028 whole entry partner): as the sequence (Q09028 whole entry partner) above

Take `Cc1cc(C)c(CNC(=O)c2cccc(-c3ccnn3C)c2C)c(=O)[nH]1` [Example 2, N-[(4,6-dimethyl-2-oxo-1,2-dihydropyridin-3-yl)methyl]-2-methyl-3-(1-methyl-1H-pyrazol-5-yl)benzamide]: the IC50 at EZH2PRC2 mutant Y641N turned out to be 5530 nM; in test [1] (setting [2]), 340 nM. As for `CC(=O)N1C2CCC1c1cc(-c3cc(C(=O)NCc4c(C)cc(C)[nH]c4=O)c(C)c(-c4ccnn4C)c3)ccc12` (centres unmarked) [Example 6, 5-[9-acetyl-1,2,3,4-tetrahydro-1,4-epiminonaphthalene-6-yl]-N-[(4,6-dimethyl-2-oxo-1,2-dihydropyridin-3-yl)methyl]-2-methyl-3-(1-methyl-1H-pyrazol-5-yl)benzamide], the IC50 at EZH2PRC2 mutant Y641N worked out at 820 nM; in test [1] (setting [2]), 22 nM. Taken in the same sequence, the figures for `Cc1cc(C)c(CNC(=O)c2cc(-c3cnc(N(C)C)nc3)cc(-c3ccnn3C)c2C)c(=O)[nH]1` [Example 13, 5-[2-(dimethylamino)pyrimidin-5-yl]-N-[(4,6-dimethyl-2-oxo-1,2-dihydropyridin-3-yl)methyl]-2-methyl-3-(1-methyl-1H-pyrazol-5-yl)benzamide] were 620 nM and 38 nM. Taken in the same sequence, the figures for `CNc1ncc(-c2cc(C(=O)NCc3c(C)cc(C)[nH]c3=O)c(C)c(-c3ccnn3C)c2)cn1` [Example 14, N-[(4,6-dimethyl-2-oxo-1,2-dihydropyridin-3-yl)methyl]-2-methyl-5-[2-(methylamino)pyrimidin-5-yl]-3-(1-methyl-1H-pyrazol-5-yl)benzamide] were 640 nM and 27 nM.

`CNc1ncc(-c2cc(C(=O)NCc3c(C)cc(C)[nH]c3=O)c(C)c(-c3c(C)cnn3C)c2)cn1` [Example 15, N-[(4,6-dimethyl-2-oxo-1,2-dihydropyridin-3-yl)methyl]-3-(1,4-dimethyl-1H-pyrazol-5-yl)-2-methyl-5-[2-(methylamino)pyrimidin-5-yl]benzamide]: the IC50 on EZH2PRC2 mutant Y641N stood at 300 nM; in test [1] it was 35 nM. On to `Cc1cc(C)c(CNC(=O)c2cc(-c3cnc(N)nc3)cc(-c3ccnn3C)c2C)c(=O)[nH]1` [Example 16, 5-(2-aminopyrimidin-5-yl)-N-[(4,6-dimethyl-2-oxo-1,2-dihydropyridin-3-yl)methyl]-2-methyl-3-(1-methyl-1H-pyrazol-5-yl)benzamide], for which the IC50 on EZH2PRC2 mutant Y641N turned out to be 1330 nM; in test [1] (setting [2]), 84 nM. Taken in the same sequence, the figures for `Cc1cc(C)c(CNC(=O)c2cc(-c3cnc(N4C[C@@H]5C[C@H]4CO5)nc3)cc(-c3c(C)cnn3C)c2C)c(=O)[nH]1` [Example 22, N-[(4,6-dimethyl-2-oxo-1,2-dihydropyridin-3-yl)methyl]-3-(1,4-dimethyl-1H-pyrazol-5-yl)-2-methyl-5-{2-[(1S,4S)-2-oxa-5-azabicyclo[2.2.1]hept-5-yl]pyrimidin-5-yl}benzamide] were 750 nM and 27 nM. Take `Cc1cc(C)c(CNC(=O)c2cc(-c3cnc(N4CC(F)C4)nc3)cc(-c3c(C)cnn3C)c2C)c(=O)[nH]1` [Example 24, N-[(4,6-dimethyl-2-oxo-1,2-dihydropyridin-3-yl)methyl]-3-(1,4-dimethyl-1H-pyrazol-5-yl)-5-[2-(3-fluoroazetidin-1-yl)pyrimidin-5-yl]-2-methylbenzamide]: the figures for the IC50 (at EZH2PRC2 mutant Y641N; in test [1] (setting [2])) were 550 nM and 22 nM, respectively.

With `CCCc1cc(C)[nH]c(=O)c1CNC(=O)c1cc(-c2cnn(C)c2)cc(OC(C)C)c1Cl` [Example 27, 2-chloro-3-isopropoxy-N-[(6-methyl-2-oxo-4-propyl-1,2-dihydropyridin-3-yl)methyl]-5-(1-methyl-1H-pyrazol-4-yl)benzamide], the IC50 on EZH2PRC2 mutant Y641N was 5150 nM; in test [1] (setting [2]), 290 nM. Taken in the same sequence, the figures for `Cc1cc(C)c(CNC(=O)c2ncnc(N3CCN(c4ncccn4)C[C@@H]3C)c2C)c(=O)[nH]1` [Example 31, (S)—N-((4,6-dimethyl-2-oxo-1,2-dihydropyridin-3-yl)methyl)-5-methyl-6-(2-methyl-4-(pyrimidin-2-yl)piperazin-1-yl)pyrimidine-4-carboxamide] were 1310 nM and 140 nM. Regarding `Cc1cc(C)c(CNC(=O)c2ncnc(N3CCC[C@@H]3CO)c2C)c(=O)[nH]1` [Example 133, N-[(4,6-dimethyl-2-oxo-1,2-dihydropyridin-3-yl)methyl]-6-[(2R)-2-(hydroxymeth-yl)pyrrolidin-1-yl]-5-methylpyrimidine-4-carboxamide], in test [1] (setting [2]), the IC50 turned out to be 87500 nM. For `CCOc1cccc(C(=O)NCc2c(C)cc(C)[nH]c2=O)c1F` [Example 134, N-[(4,6-dimethyl-2-oxo-1,2-dihydropyridin-3-yl)methyl]-3-ethoxy-2-fluoro-benzamide], in test [1] (setting [2]), the half-inhibitory concentration (IC50) came out at 127000 nM. Still for that read-out and setting: with `Cc1cc(C)c(CNC(=O)c2ncnc(N3CC[C@H]4C[C@H]43)c2C)c(=O)[nH]1` [Example 136, 6-[(1R,5S)-2-azabicyclo[3.1.0]hex-2-yl]-N-[(4,6-dimethyl-2-oxo-1,2-dihydropyridin-3-yl)methyl]-5-methyl-pyrimidine-4-carboxamide] the figure was 161000 nM; with `CC(C)Oc1cccc(C(=O)NCc2ccc[nH]c2=O)c1Cl` [Example 139, 2-chloro-3-isopropoxy-N-[(2-oxo-1,2-dihydropyridin-3-yl)methyl]benz-amide], > 200000 nM; with `COc1ccc(OC)c(C(=O)NCc2c(C)cc(C)[nH]c2=O)c1OC` [Example 140, N-[(4,6-dimethyl-2-oxo-1,2-dihydropyridin-3-yl)methyl]-2,3,6-trimethoxy-benzamide], > 200000 nM.

Turning to `Cc1ccc(CNC(=O)c2nc(C3CC3)nc(-c3ccnn3C)c2C)c(=O)[nH]1` [Example 141, 2-cyclopropyl-5-methyl-N-[(6-methyl-2-oxo-1,2-dihydropyridin-3-yl)methyl]-6-(1-methyl-1H-pyrazol-5-yl)pyrimidine-4-carboxamide], the half-inhibitory concentration (IC50) in test [1] (setting [2]) was > 200000 nM. On the same count and under the same terms, with `Cc1cc(C(F)(F)F)[nH]c(=O)c1CNC(=O)c1cc(Cl)cc(-c2ccnn2C)c1C` [Example 142, 5-chloro-2-methyl-N-{[4-methyl-2-oxo-6-(trifluoromethyl)-1,2-dihydropyridin-3-yl]methyl}-3-(1-methyl-1H-pyrazol-5-yl)benzamide] the figure was > 200000 nM; with `CC(=O)N[C@H]1CCN(c2ncnc(C(=O)NCc3c(C)cc(C)[nH]c3=O)c2C)C1` [Example 143, 6-[(3S)-3-azetamido-pyrrolidin-1-yl]-N-[(4,6-dimethyl-2-oxo-1,2-dihydropyridin-3-yl)methyl]-5-methylpyrimidine-4-carboxamide], > 200000 nM. Same read-out and setting: the result for `Cc1cc(C)c(CNC(=O)c2ncnc(N3CCC[C@@H]3c3ccccn3)c2C)c(=O)[nH]1` [Example 144, N-[(4,6-dimethyl-2-oxo-1,2-dihydropyridin-3-yl)methyl]-5-methyl-6-[(2R)-2-pyridin-2-ylpyrrolidin-1-yl]pyrimidine-4-carboxamide] reads > 200000 nM; that for `Cc1cc(C)c(CNC(=O)c2ncnc(N3CCC[C@@H]3C(N)=O)c2C)c(=O)[nH]1` [Example 145, 6-[(2R)-2-carbamoyl-pyrrolidin-1-yl]-N-[(4,6-dimethyl-2-oxo-1,2-dihydropyridin-3-yl)methyl]-5-methylpyrimi-dine-4-carboxamide], > 200000 nM; that for `Cc1noc([C@H]2CCCN2c2ncnc(C(=O)NCc3c(C)cc(C)[nH]c3=O)c2C)n1` [Example 146, N-[(4,6-dimethyl-2-oxo-1,2-dihydropyridin-3-yl)methyl]-5-methyl-6-[(2R)-2-(3-methyl-1,2,4-oxadiazol-5-yl)pyrrolidin-1-yl]pyrimidine-4-carboxamide], > 200000 nM. The same measure, in the same setting: the result for `CCn1ncc(C)c1-c1cccc(C(=O)NCc2c(C)c(Cl)c(C)[nH]c2=O)c1C` [Example 148, N-[(5-chloro-4,6-dimethyl-2-oxo-1,2-dihydropyridin-3-yl)methyl]-3-(1-ethyl-4-methyl-1H-pyrazol-5-yl)-2-methyl-benzamide] reads > 200000 nM.

As usually defined, the IC50 is the concentration at which inhibition is half-maximal.
